US11040981B2, “Pyrrolotriazine compounds and methods of inhibiting TAM kinases” (Syros Pharmaceuticals, Inc., priority 2017, dated 2021)

Key:
FLT3 = biological target: T1, FLT3 (Homo sapiens, UniProt P36888); experiment: TR-FRET kinase activity assay, FLT3; format: biochemical; conditions: ATP at Km, 60 minutes
T1 sequence (P36888 27-993): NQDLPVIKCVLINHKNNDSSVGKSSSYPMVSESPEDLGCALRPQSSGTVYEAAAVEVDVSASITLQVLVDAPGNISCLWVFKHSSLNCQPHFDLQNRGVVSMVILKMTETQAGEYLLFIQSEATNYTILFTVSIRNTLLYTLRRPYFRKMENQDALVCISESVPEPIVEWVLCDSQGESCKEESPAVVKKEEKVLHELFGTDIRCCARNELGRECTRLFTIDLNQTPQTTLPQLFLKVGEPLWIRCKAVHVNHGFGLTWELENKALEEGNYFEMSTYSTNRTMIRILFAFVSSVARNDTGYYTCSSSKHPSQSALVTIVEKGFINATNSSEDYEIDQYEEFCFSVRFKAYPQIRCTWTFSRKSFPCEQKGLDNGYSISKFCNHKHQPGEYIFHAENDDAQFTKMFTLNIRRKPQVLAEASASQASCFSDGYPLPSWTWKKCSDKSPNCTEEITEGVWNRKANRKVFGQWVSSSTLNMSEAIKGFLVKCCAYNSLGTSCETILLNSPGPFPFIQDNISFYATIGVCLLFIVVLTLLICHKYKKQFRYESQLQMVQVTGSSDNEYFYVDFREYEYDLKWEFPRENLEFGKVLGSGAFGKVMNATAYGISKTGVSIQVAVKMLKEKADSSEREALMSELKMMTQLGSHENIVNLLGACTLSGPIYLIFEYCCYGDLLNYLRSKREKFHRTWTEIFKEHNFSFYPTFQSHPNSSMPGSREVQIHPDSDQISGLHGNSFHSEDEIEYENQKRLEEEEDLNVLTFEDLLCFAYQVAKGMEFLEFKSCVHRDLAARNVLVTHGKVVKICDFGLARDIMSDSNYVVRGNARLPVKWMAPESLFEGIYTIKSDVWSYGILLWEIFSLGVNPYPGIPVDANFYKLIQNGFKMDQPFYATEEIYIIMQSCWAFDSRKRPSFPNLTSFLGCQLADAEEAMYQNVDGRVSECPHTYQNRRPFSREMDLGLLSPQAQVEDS
Outline: (§1)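 Inhibition is measured as loss of phospho-peptide formation: kinase, fluorescent tyrosine peptide and compound are combined, ATP is added at Km, and the reaction proceeds 60 min at RT in pH 7.5 HEPES buffer. An EDTA stop and Eu-labelled phospho-specific antibody allow TR-FRET detection for IC50 fitting.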

AXL = biological target: T2, AXL (Homo sapiens, UniProt P30530); experiment: TR-FRET kinase activity assay, AXL; format: biochemical; conditions: ATP at Km, 60 minutes
T2 sequence (P30530 26-894): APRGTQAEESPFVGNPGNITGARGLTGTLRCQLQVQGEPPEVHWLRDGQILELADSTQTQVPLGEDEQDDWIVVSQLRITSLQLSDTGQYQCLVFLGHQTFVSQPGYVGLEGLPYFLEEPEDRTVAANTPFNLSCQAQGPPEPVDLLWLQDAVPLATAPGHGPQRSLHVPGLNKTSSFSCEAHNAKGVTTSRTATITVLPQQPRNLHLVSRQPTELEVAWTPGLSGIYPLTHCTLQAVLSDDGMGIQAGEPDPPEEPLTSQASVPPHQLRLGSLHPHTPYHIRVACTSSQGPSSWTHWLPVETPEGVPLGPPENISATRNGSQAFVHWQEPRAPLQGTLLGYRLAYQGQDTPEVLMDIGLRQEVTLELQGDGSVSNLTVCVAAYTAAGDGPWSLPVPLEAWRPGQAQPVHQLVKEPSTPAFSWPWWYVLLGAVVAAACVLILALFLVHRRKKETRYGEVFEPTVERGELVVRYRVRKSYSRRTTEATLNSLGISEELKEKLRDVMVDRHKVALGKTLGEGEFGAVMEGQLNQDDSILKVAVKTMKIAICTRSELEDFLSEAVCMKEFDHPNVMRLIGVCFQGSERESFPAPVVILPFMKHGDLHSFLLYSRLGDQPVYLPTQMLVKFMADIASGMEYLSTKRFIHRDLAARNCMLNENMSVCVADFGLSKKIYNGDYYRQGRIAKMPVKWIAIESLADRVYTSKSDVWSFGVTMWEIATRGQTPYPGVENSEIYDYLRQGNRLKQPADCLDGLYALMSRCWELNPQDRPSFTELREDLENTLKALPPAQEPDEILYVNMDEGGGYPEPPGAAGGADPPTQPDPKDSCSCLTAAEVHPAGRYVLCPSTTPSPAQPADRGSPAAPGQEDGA
Outline: as §1

Structure (SMILES) | IC50 (FLT3) [µM] | IC50 (AXL) [µM]
COC[C@H](C)Nc1ncc2c(-c3ccnc(N4CCS(=O)(=O)CC4)c3)cc([C@H]3CC[C@H](O)CC3)n2n1 [Compound 357] | 0.1 to 1 | ≤ 0.1
COC[C@H](C)Nc1ncc2c([C@H]3CCN(S(C)(=O)=O)C3)cc([C@H]3CC[C@H](O)CC3)n2n1 [Compound 376] | 1 to 10 | 0.1 to 1
COC[C@H](C)Nc1ncc2c(-c3cnn(C4CCN(C)C4=O)c3)cc([C@H]3CC[C@H](O)CC3)n2n1 (stereo partly drawn) [Compound 394, 3-(4-(7-((trans)-4-hydroxycyclohexyl)-2-(((S)-1-methoxypropan-2-yl)amino)pyrrolo[2,1-f][1,2,4]triazin-5-yl)-1H-pyrazol-1-yl)-1-methylpyrrolidin-2-one] | 0.1 to 1 | ≤ 0.1
COC[C@H](C)Nc1ncc2c(-c3ccnc(O[C@@H]4CCCN(C)C4)c3)cc([C@H]3CC[C@H](O)CC3)n2n1 [Compound 404] | 0.1 to 1 | ≤ 0.1
CNC(=O)c1ncc(-c2cc([C@H]3CC[C@H](O)CC3)n3nc(N[C@@H](C)COC(F)F)ncc23)cn1 [Compound 407] | 0.1 to 1 | ≤ 0.1
CNC(=O)c1cncc(-c2cc([C@H]3CC[C@H](O)CC3)n3nc(N[C@@H](C)COC(F)F)ncc23)c1 [Compound 398] | 1 to 10 | ≤ 0.1
COC[C@H](C)Nc1ncc2c(-c3cnn([C@@H]4CCC(C(=O)OC(C)(C)C)C4)c3)cc([C@H]3CC[C@H](O)CC3)n2n1 (stereo partly shown) [Compound 364] | ≤ 0.1 | ≤ 0.1
COC[C@H](C)Nc1ncc2c(-c3cc([C@H]4CC[C@H](O)CC4)n4nc(N[C@@H](C)COC)ncc34)cc([C@H]3CC[C@H](O)CC3)n2n1 [Compound 349] | 1 to 10 | 1 to 10
CNOc1cc(-c2cc([C@H]3CC[C@H](O)CC3)n3nc(N[C@@H](C)COC)ncc23)ccn1 [Compound 361] | 1 to 10 | ≤ 0.1
COC[C@H](C)Nc1ncc2c(-c3ccnc(O[C@@H]4CCNC4)c3)cc([C@H]3CC[C@H](O)CC3)n2n1 [Compound 401] | 0.1 to 1 | ≤ 0.1
COC[C@H](C)Nc1ncc2c(-c3ccnc(N[C@@H]4CCOC4)c3)cc([C@H]3CC[C@H](O)CC3)n2n1 [Compound 416] | 0.1 to 1 | ≤ 0.1
OC1CCC(c2cc(-c3ccnc(N4CCOCC4)c3)c3cnc(NCCC4CC4)nn23)CC1 (stereo not shown) [Compound 359] | ≤ 0.1 | ≤ 0.1
COC[C@H](C)Nc1ncc2c(-c3ccnc(O[C@H]4CCN(C)C4)c3)cc([C@H]3CC[C@H](O)CC3)n2n1 [Compound 400] | 0.1 to 1 | ≤ 0.1
COC[C@H](C)Nc1ncc2c(-c3ccnc(O[C@H]4CCNC4)c3)cc([C@H]3CC[C@H](O)CC3)n2n1 [Compound 386] | 0.1 to 1 | ≤ 0.1
COC[C@H](C)Nc1ncc2c(-c3cnn(C(C)(C)C(=O)N4C[C@@H](C)O[C@H](C)C4)c3)cc([C@H]3CC[C@H](O)CC3)n2n1 [Compound 367] | 1 to 10 | ≤ 0.1
COC[C@H](C)Nc1ncc2c(-c3ccnc(OC4COC4)c3)cc([C@H]3CC[C@H](O)CC3)n2n1 [Compound 358] | 1 to 10 | ≤ 0.1
CNS(=O)(=O)c1ccc(-c2cc([C@H]3CC[C@H](O)CC3)n3nc(N[C@@H](C)CC(F)(F)F)ncc23)cn1 [Compound 360] | ≤ 0.1 | ≤ 0.1
C[C@@H](COC(F)F)Nc1ncc2c(-c3ccnc(N4CCOCC4)c3)cc([C@H]3CC[C@H](O)CC3)n2n1 [Compound 405] | ≤ 0.1 | ≤ 0.1
COC[C@H](C)Nc1ncc2c(-c3ccnc(OC4CCNCC4)c3)cc([C@H]3CC[C@H](O)CC3)n2n1 [Compound 369] | 0.1 to 1 | ≤ 0.1

Structure (SMILES) | IC50 (FLT3) [µM] | IC50 (AXL) [µM]
COC[C@H](C)Nc1ncc2c(-c3cnn([C@@H]4CCN(C(C)=O)C4)c3)cc([C@H]3CC[C@H](O)CC3)n2n1 [Compound 396] | 0.1 to 1 | ≤ 0.1
C[C@H](CN(C)C)Nc1ncc2c(-c3cnn(C4COC4)c3)cc([C@H]3CC[C@H](O)CC3)n2n1 [Compound 388] | 1 to 10 | 1 to 10
CC[C@H](C)Nc1ncc2c(-c3cncc(S(C)(=O)=O)c3)cc([C@H]3CC[C@@H](O)CC3)n2n1 [Compound 120] | 1 to 10 | 0.1 to 1
CC(C)Nc1ncc2c(-c3ccnc(N4CCOCC4)c3)cc([C@H]3CC[C@H](O)CC3)n2n1 [Compound 350] | ≤ 0.1 | ≤ 0.1
COC[C@H](C)Nc1ncc2c(-c3cnn(CC4COC4)c3)cc([C@H]3CC[C@H](O)CC3)n2n1 [Compound 420] | 0.1 to 1 | ≤ 0.1
COC[C@H](C)Nc1ncc2c(-c3cnn([C@@H]4CO[C@H]5OCC[C@H]54)c3)cc([C@H]3CC[C@H](O)CC3)n2n1 [Compound 422] | 0.1 to 1 | ≤ 0.1
COC[C@H](C)Nc1ncc2c([C@@H]3CCCN(c4ccnc(C)n4)C3)cc([C@H]3CC[C@H](O)CC3)n2n1 [Compound 378] | 1 to 10 | 1 to 10
C[C@@H](CN(C)C)Nc1ncc2c(-c3cnn(C4COC4)c3)cc([C@H]3CC[C@H](O)CC3)n2n1 [Compound 387] | 1 to 10 | 1 to 10
COC[C@H](C)Nc1ncc2c(-c3ccnc(O[C@@H]4CCCNC4)c3)cc([C@H]3CC[C@H](O)CC3)n2n1 [Compound 390] | 0.1 to 1 | ≤ 0.1
COC[C@H](C)Nc1ncc2c([C@@H]3CCN(S(C)(=O)=O)C3)cc([C@H]3CC[C@H](O)CC3)n2n1 [Compound 375] | 1 to 10 | 0.1 to 1
COC[C@H](C)Nc1ncc2c([C@H]3CCCN(c4ccnc(C)n4)C3)cc([C@H]3CC[C@H](O)CC3)n2n1 [Compound 377] | 1 to 10 | 0.1 to 1
COC[C@H](C)Nc1ncc2c(-c3cnn(CCC#N)c3)cc([C@H]3CC[C@](C)(O)CC3)n2n1 [Compound 382] | 0.1 to 1 | ≤ 0.1
CNC(=O)c1cc(-c2cc([C@H]3CC[C@H](O)CC3)n3nc(N[C@@H](C)COC(F)F)ncc23)cc(C)n1 [Compound 385] | 1 to 10 | 0.1 to 1
C[C@@H](CC(F)(F)F)Nc1ncc2c(-c3ccnc(N4CCOCC4)c3)cc([C@H]3CC[C@H](O)CC3)n2n1 [Compound 346] | ≤ 0.1 | ≤ 0.1
COC[C@H](C)Nc1ncc2c(-c3cnn(CS(C)(=O)=O)c3)cc([C@H]3CC[C@H](O)CC3)n2n1 [Compound 419] | 0.1 to 1 | ≤ 0.1
COC[C@H](C)Nc1ncc2c(-c3ccnc(O[C@@H]4CCN(C)C4)c3)cc([C@H]3CC[C@H](O)CC3)n2n1 [Compound 402] | 0.1 to 1 | ≤ 0.1
CNC(=O)c1cc(-c2cc([C@H]3CC[C@H](O)CC3)n3nc(N[C@@H](C)CC(F)(F)F)ncc23)ccn1 [Compound 384] | ≤ 0.1 | ≤ 0.1
COC[C@H](C)Nc1ncc2c(-c3ccnc(O[C@H]4CCCNC4)c3)cc([C@H]3CC[C@H](O)CC3)n2n1 [Compound 389] | 0.1 to 1 | ≤ 0.1
CC(CC(F)F)Nc1ncc2c(-c3ccc(CN4CCN(C)CC4)cc3)cc(C3CCC(O)CC3)n2n1 (stereo not shown) [Compound 352] | ≤ 0.1 | ≤ 0.1
